Test results taken from patent US20050256093A1, “Branched polyamine steroid derivatives” (Leo Pharma, priority 2002, published 2005).
In brackets after ≈: the same amount, converted by molar mass.

Tests used:
Test in all cases: agar cup assay MIC
Format in all cases: cell-based
[1] = system: Asbergillus niger ZM35; conditions: Aspergillus niger
Text: (§1) In vitro investigations have shown a significant potency of the compounds of the invention against a large number of bacteria including gram-positive and gram-negative strains (Staphyiococci, Streptococci, Corynebacteriae, Mycobacteriae, Proteus, Propionibacterium, Pseudomonas, Neisseriae, E. coli) and fungal strains (Candida and Aspergillus). […] In addition, the studies of post-antibiotic effects point towards a strong bactericidal effect of the compounds of the invention. […] Minimum Inhibitory Concentrations were estimated using an agar cup assay. Bacterial strains were obtained from the American Type Culture Collection or from our own collection of clinical isolates. Colonies from fresh overnight culture were resuspended in saline water to 0.5 MacFarland corresponding to 10^8 CFU/ml. 200 ml Mueller Hinton agar (Oxoid) at 48° C. was inoculated at a concentration of 10^6 CFU/ml and poured into square petri dishes (245×245 mm). Holes were made in the inoculated plates and 200 μl of the compounds to be tested were disposed into each hole. A dilution series of compounds contained six dilution between 0.25 and 125 μg/ml. For Streptococci Mueller Hinton agar was supplemented with 5% sheep blood. Plates were appropriately incubated and zone diameters of growth inhibition were measured using an electronic caliper. MICs were estimated using a linear regression curve between the zone diameter of growth inhibition and the log2 of the sample concentration. The microbiological assay set up is in agreement with the European Pharmacopoeia 3rd edition (1997). The inhibition zones are function of the concentration of the compounds used. Known antibiotics including fusidic acid (FA), mupirocin and linezolid were used as reference compounds.

[2] = system: Candida albicans ZA
Text: as §1

[3] = system: Corynebacterium xerosis FF
Text: as §1

[4] = system: E. coli HA165; conditions: Escherichia coli
Text: as §1

[5] = system: Propionibacterium acnes FN33; conditions: Cutibacterium acnes
Text: as §1

[6] = system: Pseudomonas aeruginosa BA17
Text: as §1

[7] = system: S. aureus CJ200; conditions: Staphylococcus aureus
Text: as §1

[8] = system: S. aureus CJ234F; conditions: Staphylococcus aureus; S. aureus CJ234F (MRSA, Fus. resistant)
Text: as §1

[9] = system: S. aureus CJ234R; conditions: Staphylococcus aureus; S. aureus CJ234R (MRSA, Rifampicin resistant)
Text: as §1

[10] = system: S. aureus CJ247; conditions: Staphylococcus aureus
Text: as §1

[11] = system: S. aureus N6; conditions: Staphylococcus aureus; S. aureus N6 (Fus. resistant)
Text: as §1

[12] = system: S. epidermis CK5; conditions: Staphylococcus epidermidis
Text: as §1

[13] = system: Saccaromyces cervisiae ZZ7; conditions: Saccharomyces cerevisiae
Text: as §1

[14] = system: Streptococcus faecium EI19; conditions: Enterococcus faecium; Streptococcus faecium EI19 (Penicillin resistant); agar with 5% sheep blood
Text: as §1

[15] = system: Streptococcus pyogenes EC88; conditions: agar with 5% sheep blood
Text: as §1

CC(=O)O[C@H]1C[C@@]2(C)C(C[C@@H](O)C3[C@@]4(C)CC[C@@H](O)[C@@H](C)C4CC[C@@]32C)[C@@H]1[C@H](CCCC(C)C)C(=O)NCCN(CCN)CCN (stereo partly drawn) [Compound 101, 21-N-{2′-[bis(2′-aminoethyl)amino]ethyl}-17R,20S,24,25-tetrahydrofusid-21-amide]
MIC [1]: 4 µg/mL (≈ 6.16 µM) | MIC [2]: 16 µg/mL (≈ 24.7 µM) | MIC [3]: 4 µg/mL (≈ 6.16 µM) | MIC [4]: 16 µg/mL (≈ 24.7 µM) | MIC [5]: 4 µg/mL (≈ 6.16 µM) | MIC [6]: 64 µg/mL (≈ 98.6 µM) | MIC [7]: 4 µg/mL (≈ 6.16 µM) | MIC [8]: 4 µg/mL (≈ 6.16 µM) | MIC [9]: 4 µg/mL (≈ 6.16 µM) | MIC [10]: 4 µg/mL (≈ 6.16 µM) | MIC [11]: 4 µg/mL (≈ 6.16 µM) | MIC [12]: 4 µg/mL (≈ 6.16 µM) | MIC [13]: 4 µg/mL (≈ 6.16 µM) | MIC [14]: 16 µg/mL (≈ 24.7 µM) | MIC [15]: 16 µg/mL (≈ 24.7 µM)

CC(C)CCCC(C(=O)NCCN(CCN)CCN)[C@@H]1CC[C@@]2(C)C1C[C@@H](O)C1[C@@]3(C)CC[C@@H](O)[C@@H](C)C3CC[C@@]12C (stereo partly drawn) [Compound 103, 21-N-{2′-[bis(2′-aminoethyl)amino]ethyl}-16-desacetoxy-17R,20S,24,25-tetrahydrofusid-21-amide]
MIC [1]: > 125 µg/mL | MIC [2]: 1 µg/mL (≈ 1.69 µM) | MIC [3]: 1 µg/mL (≈ 1.69 µM) | MIC [4]: 4 µg/mL (≈ 6.77 µM) | MIC [5]: 1 µg/mL (≈ 1.69 µM) | MIC [6]: 16 µg/mL (≈ 27.1 µM) | MIC [7]: 1 µg/mL (≈ 1.69 µM) | MIC [8]: 1 µg/mL (≈ 1.69 µM) | MIC [9]: 1 µg/mL (≈ 1.69 µM) | MIC [10]: 1 µg/mL (≈ 1.69 µM) | MIC [11]: 1 µg/mL (≈ 1.69 µM) | MIC [12]: 1 µg/mL (≈ 1.69 µM) | MIC [13]: 4 µg/mL (≈ 6.77 µM) | MIC [14]: 16 µg/mL (≈ 27.1 µM) | MIC [15]: 4 µg/mL (≈ 6.77 µM)

CC(=O)O[C@H]1C[C@@]2(C)[C@@H](C[C@@H](O)[C@H]3[C@@]4(C)CC[C@@H](O)[C@@H](C)[C@@H]4CC[C@@]32C)/C1=C(\CCC=C(C)C)C(=O)O [FA, fusidic acid, reference compound]
MIC [1]: > 64 µg/mL | MIC [2]: > 64 µg/mL | MIC [3]: 0.1 µg/mL (≈ 0.194 µM) | MIC [4]: > 64 µg/mL | MIC [5]: 0.2 µg/mL (≈ 0.387 µM) | MIC [6]: > 64 µg/mL | MIC [7]: 0.02 µg/mL (≈ 0.0387 µM) | MIC [8]: 16 µg/mL (≈ 31 µM) | MIC [9]: 0.02 µg/mL (≈ 0.0387 µM) | MIC [10]: 0.02 µg/mL (≈ 0.0387 µM) | MIC [11]: 16 µg/mL (≈ 31 µM) | MIC [12]: 0.02 µg/mL (≈ 0.0387 µM) | MIC [13]: > 64 µg/mL | MIC [15]: 16 µg/mL (≈ 31 µM)

CC(=O)O[C@H]1C[C@@]2(C)C(CC=C3[C@]2(C)CCC2[C@H](C)[C@H](O)CC[C@]32C)[C@@H]1[C@H](CCCC(C)C)C(=O)NCCN(CCN)CCN (stereo partly drawn) [Compound 106, 21-N-{2′-[bis(2′-aminoethyl)amino]ethyl}-9(11)-en-17R,20S,24,25-tetrahydrofusid-21-amide]
MIC [1]: 63 µg/mL (≈ 99.8 µM) | MIC [2]: 16 µg/mL (≈ 25.4 µM) | MIC [3]: 4 µg/mL (≈ 6.34 µM) | MIC [4]: 16 µg/mL (≈ 25.4 µM) | MIC [5]: 4 µg/mL (≈ 6.34 µM) | MIC [6]: 16 µg/mL (≈ 25.4 µM) | MIC [8]: 4 µg/mL (≈ 6.34 µM) | MIC [9]: 4 µg/mL (≈ 6.34 µM) | MIC [10]: 4 µg/mL (≈ 6.34 µM) | MIC [11]: 4 µg/mL (≈ 6.34 µM) | MIC [12]: 4 µg/mL (≈ 6.34 µM) | MIC [13]: 16 µg/mL (≈ 25.4 µM) | MIC [14]: 16 µg/mL (≈ 25.4 µM) | MIC [15]: 4 µg/mL (≈ 6.34 µM)

CC(=O)O[C@H]1C[C@@]2(C)C(CCC3[C@@]4(C)CC[C@@H](OS(=O)(=O)O)[C@@H](C)C4CC[C@@]32C)[C@@H]1[C@H](CCCC(C)C)C(=O)NCCCN(CCCN)CCCN (some centres unmarked) [Compound 116]
MIC [1]: 64 µg/mL (≈ 84.8 µM) | MIC [2]: 64 µg/mL (≈ 84.8 µM) | MIC [3]: 4 µg/mL (≈ 5.3 µM) | MIC [4]: 64 µg/mL (≈ 84.8 µM) | MIC [5]: 16 µg/mL (≈ 21.2 µM) | MIC [6]: 125 µg/mL (≈ 166 µM) | MIC [7]: 4 µg/mL (≈ 5.3 µM) | MIC [8]: 4 µg/mL (≈ 5.3 µM) | MIC [9]: 4 µg/mL (≈ 5.3 µM) | MIC [12]: 4 µg/mL (≈ 5.3 µM) | MIC [13]: 16 µg/mL (≈ 21.2 µM) | MIC [15]: 16 µg/mL (≈ 21.2 µM)

CC(C)CCCC(C(=O)NCCN(CCN)CCN)C1=C2C[C@@H](O)C3[C@@]4(C)CC[C@@H](O)[C@@H](C)C4CC[C@]3(C)[C@@]2(C)CC1 (some centres unmarked) [Compound 104, 21-N-{2′-[bis(2′-aminoethyl)amino]ethyl}-13(17)-en-17,20,24,25-tetrahydrofusidan-21-carboxamide]
MIC [1]: > 64 µg/mL | MIC [2]: 16 µg/mL (≈ 27.2 µM) | MIC [3]: 16 µg/mL (≈ 27.2 µM) | MIC [4]: > 64 µg/mL | MIC [5]: 16 µg/mL (≈ 27.2 µM) | MIC [6]: > 64 µg/mL | MIC [7]: 16 µg/mL (≈ 27.2 µM) | MIC [8]: 16 µg/mL (≈ 27.2 µM) | MIC [9]: 16 µg/mL (≈ 27.2 µM) | MIC [10]: 16 µg/mL (≈ 27.2 µM) | MIC [11]: 16 µg/mL (≈ 27.2 µM) | MIC [12]: 16 µg/mL (≈ 27.2 µM) | MIC [13]: 16 µg/mL (≈ 27.2 µM) | MIC [14]: > 64 µg/mL | MIC [15]: 16 µg/mL (≈ 27.2 µM)

C[C@H](C(=O)NCCCN(CCCN)CCCN)[C@H]1CC[C@H]2[C@@H]3CC=C4C[C@@H](O)CC[C@]4(C)[C@H]3CC[C@]12C [Compound 114, 22-N-{3′-[bis(3′-aminopropyl)amino]propyl}-23,24-bisnor-5-cholenic-22-amide]
MIC [2]: > 125 µg/mL | MIC [3]: 64 µg/mL (≈ 124 µM) | MIC [4]: 16 µg/mL (≈ 31 µM) | MIC [5]: 16 µg/mL (≈ 31 µM) | MIC [6]: > 125 µg/mL | MIC [7]: 16 µg/mL (≈ 31 µM) | MIC [8]: 16 µg/mL (≈ 31 µM) | MIC [9]: 16 µg/mL (≈ 31 µM) | MIC [10]: 16 µg/mL (≈ 31 µM) | MIC [11]: 16 µg/mL (≈ 31 µM) | MIC [12]: 16 µg/mL (≈ 31 µM) | MIC [13]: 64 µg/mL (≈ 124 µM) | MIC [15]: 64 µg/mL (≈ 124 µM)
